Data: patent US20210038607A1, “OXADIAZOLYLTHIOPHENE DERIVATIVES USEFUL AS HISTONE DEACETYLASE INHIBITORS” (Karus Therapeutics Limited, priority 2018, published 2021)

Legend:
[1] = target: T1, Human HDAC1 (Homo sapiens, UniProt Q13547); test: HDAC1 biochemical assay, AMC-labeled peptide substrate; details: read-out: HDAC Isoform IC50 (nM) 1
T1 construct: full length with C-terminal His-tag and C-terminal FLAG-tag; His (C); FLAG (C); host or cells: baculovirus expression system
Summary of the method: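 Two-step fluorogenic read: HDAC1 deacetylates 50 μM acetyl-lysine AMC peptide RHKK(Ac)AMC for 1 h at 30° C (pH 8.0, 1% DMSO, with compound), then developer digests the product for fluorescence at Ex/Em 360/460. Enzyme is full-length human, His/FLAG-tagged, insect-cell expressed, at 0.3 ng/ul.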

[2] = target: T2, Human HDAC4 (Homo sapiens, UniProt P56524); test: HDAC4 biochemical assay, class IIa-specific substrate; details: read-out: HDAC Isoform IC50 (nM) 4
T2 construct: amino acids 627-1085 with N-terminal GST tag; GST (N); host or cells: baculovirus expression system
T2 sequence (P56524 627-1084 limits assumed): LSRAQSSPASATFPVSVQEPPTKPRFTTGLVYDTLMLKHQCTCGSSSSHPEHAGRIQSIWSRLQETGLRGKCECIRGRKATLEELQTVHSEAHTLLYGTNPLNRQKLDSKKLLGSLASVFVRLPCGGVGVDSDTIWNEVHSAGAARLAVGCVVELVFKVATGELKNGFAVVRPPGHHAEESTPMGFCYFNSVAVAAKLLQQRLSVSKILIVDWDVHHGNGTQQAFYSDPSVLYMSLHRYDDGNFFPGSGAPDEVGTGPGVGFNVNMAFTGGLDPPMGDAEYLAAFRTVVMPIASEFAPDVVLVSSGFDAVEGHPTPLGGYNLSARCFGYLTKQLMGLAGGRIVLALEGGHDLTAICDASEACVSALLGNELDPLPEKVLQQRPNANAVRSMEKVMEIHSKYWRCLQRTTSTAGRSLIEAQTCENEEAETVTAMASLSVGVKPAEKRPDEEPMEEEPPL
Summary of the method: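 Two-step fluorogenic read-out: deacetylated BOC-Lys(trifluoroacetyl)-AMC (50 μM) was digested by developer and measured at Ex/Em 360/460. Deacetylation by 0.004 ng/ul HDAC4 (aa 627-1085, N-terminal GST) ran 30 min at room temperature, pH 8.0 Tris buffer, 1 mg/mL BSA, 1% DMSO.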

[3] = target: T3, Human HDAC5 (Homo sapiens, UniProt Q9UQL6); test: HDAC5 biochemical assay, class IIa-specific substrate; details: read-out: HDAC Isoform IC50 (nM) 5
T3 construct: full length with C-terminal His tag, MW=51.1 kDa; His (C); host or cells: baculovirus expression system
T3 sequence (Q9UQL6 656-1122 limits assumed): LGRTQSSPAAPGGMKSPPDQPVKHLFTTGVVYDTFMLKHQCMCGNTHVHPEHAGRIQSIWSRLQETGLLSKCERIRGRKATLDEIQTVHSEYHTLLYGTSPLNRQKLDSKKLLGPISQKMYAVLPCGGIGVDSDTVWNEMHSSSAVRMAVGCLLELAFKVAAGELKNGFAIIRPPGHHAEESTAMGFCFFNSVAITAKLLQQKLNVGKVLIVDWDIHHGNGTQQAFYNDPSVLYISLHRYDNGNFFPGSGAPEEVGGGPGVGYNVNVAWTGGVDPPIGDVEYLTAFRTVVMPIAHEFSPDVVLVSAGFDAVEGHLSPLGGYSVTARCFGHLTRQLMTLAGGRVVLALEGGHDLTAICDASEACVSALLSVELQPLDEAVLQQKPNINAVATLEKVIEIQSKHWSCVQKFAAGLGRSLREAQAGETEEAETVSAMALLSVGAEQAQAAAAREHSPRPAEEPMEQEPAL
Summary of the method: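 Two-step fluorogenic read-out: deacetylated trifluoroacetyl-lysine AMC substrate (50 μM) digested by developer, measured at Ex/Em 360/460. Deacetylation step: 0.05 ng/ul His-tagged full-length baculoviral enzyme with compound, 30 min, room temperature, pH 8.0 Tris with 1 mg/mL BSA and 1% DMSO.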

[4] = target: T4, Human HDAC9 (Homo sapiens, UniProt Q9UKV0); test: HDAC9 biochemical assay, class IIa-specific substrate; details: read-out: HDAC Isoform IC50 (nM) 9
T4 construct: amino acids 604-1066 with C-terminal His tag; His (C); host or cells: baculovirus expression system
T4 sequence (Q9UKV0 604-1066 isoform Q9UKV0-5): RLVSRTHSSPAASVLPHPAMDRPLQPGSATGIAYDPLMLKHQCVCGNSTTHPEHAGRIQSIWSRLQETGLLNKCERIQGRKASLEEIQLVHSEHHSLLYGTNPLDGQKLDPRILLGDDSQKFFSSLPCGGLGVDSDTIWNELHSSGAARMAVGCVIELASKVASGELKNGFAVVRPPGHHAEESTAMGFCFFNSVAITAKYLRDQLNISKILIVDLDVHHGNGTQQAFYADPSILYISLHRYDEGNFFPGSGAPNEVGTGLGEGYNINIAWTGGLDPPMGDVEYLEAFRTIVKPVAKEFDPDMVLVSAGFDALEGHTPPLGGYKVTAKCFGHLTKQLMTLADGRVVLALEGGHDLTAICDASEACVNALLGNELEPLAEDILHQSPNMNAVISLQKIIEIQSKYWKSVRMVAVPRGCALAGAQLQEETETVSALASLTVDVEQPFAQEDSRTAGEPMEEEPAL
Summary of the method: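 HDAC9 residues 604-1066 (C-terminal His tag, baculovirus-expressed) at 0.06 ng/ul with 50 μM class IIa substrate Boc-Lys(trifluoroacetyl)-AMC in Tris-HCl pH 8.0 buffer with BSA and 1% DMSO. 30 min at room temperature, then developer added; fluorescence read at 360/460 nm Ex/Em.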

[5] = target: T5, Human HDAC7 (Homo sapiens, UniProt Q8WUI4); test: HDAC7 biochemical assay, class IIa-specific substrate; details: read-out: HDAC Isoform IC50 (nM) 7
T5 construct: (a.a. 518-end) with N-terminal GST tag; GST (N); host or cells: baculovirus expression system
T5 sequence (Q8WUI4 518-952 limits assumed): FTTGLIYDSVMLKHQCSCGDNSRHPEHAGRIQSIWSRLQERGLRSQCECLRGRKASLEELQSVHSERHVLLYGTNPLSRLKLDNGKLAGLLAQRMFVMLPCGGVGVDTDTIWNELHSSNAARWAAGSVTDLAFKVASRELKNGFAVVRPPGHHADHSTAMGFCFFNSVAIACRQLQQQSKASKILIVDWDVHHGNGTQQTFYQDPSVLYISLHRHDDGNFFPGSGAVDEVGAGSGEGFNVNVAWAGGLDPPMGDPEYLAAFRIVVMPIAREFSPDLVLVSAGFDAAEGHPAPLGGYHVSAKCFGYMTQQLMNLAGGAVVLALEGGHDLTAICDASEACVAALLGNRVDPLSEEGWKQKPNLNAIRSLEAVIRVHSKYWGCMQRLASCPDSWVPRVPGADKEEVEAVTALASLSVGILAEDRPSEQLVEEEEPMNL
Summary of the method: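 Two-step fluorogenic readout: class IIa-selective trifluoroacetyl-lysine AMC substrate (50 μM) deacetylated by N-terminal GST-HDAC7 fragment (0.001 ng/ul), then digested by developer, Ex/Em 360/460. Reaction: 30 min, room temperature, Tris-HCl pH 8.0, NaCl/KCl/MgCl2, 1 mg/mL BSA, 1% DMSO.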

[6] = target: T6, Recombinant human HDAC6 (Homo sapiens, UniProt Q9UBN7); test: HDAC6 biochemical assay, AMC-labeled peptide substrate; details: HDAC6; read-out: HDAC Isoform IC50 (nM) 6
T6 construct: full length, MW=159 kDa; GST (N); host or cells: Sf9 insect cells (baculovirus)
T6 sequence (Q9UBN7 1-1215): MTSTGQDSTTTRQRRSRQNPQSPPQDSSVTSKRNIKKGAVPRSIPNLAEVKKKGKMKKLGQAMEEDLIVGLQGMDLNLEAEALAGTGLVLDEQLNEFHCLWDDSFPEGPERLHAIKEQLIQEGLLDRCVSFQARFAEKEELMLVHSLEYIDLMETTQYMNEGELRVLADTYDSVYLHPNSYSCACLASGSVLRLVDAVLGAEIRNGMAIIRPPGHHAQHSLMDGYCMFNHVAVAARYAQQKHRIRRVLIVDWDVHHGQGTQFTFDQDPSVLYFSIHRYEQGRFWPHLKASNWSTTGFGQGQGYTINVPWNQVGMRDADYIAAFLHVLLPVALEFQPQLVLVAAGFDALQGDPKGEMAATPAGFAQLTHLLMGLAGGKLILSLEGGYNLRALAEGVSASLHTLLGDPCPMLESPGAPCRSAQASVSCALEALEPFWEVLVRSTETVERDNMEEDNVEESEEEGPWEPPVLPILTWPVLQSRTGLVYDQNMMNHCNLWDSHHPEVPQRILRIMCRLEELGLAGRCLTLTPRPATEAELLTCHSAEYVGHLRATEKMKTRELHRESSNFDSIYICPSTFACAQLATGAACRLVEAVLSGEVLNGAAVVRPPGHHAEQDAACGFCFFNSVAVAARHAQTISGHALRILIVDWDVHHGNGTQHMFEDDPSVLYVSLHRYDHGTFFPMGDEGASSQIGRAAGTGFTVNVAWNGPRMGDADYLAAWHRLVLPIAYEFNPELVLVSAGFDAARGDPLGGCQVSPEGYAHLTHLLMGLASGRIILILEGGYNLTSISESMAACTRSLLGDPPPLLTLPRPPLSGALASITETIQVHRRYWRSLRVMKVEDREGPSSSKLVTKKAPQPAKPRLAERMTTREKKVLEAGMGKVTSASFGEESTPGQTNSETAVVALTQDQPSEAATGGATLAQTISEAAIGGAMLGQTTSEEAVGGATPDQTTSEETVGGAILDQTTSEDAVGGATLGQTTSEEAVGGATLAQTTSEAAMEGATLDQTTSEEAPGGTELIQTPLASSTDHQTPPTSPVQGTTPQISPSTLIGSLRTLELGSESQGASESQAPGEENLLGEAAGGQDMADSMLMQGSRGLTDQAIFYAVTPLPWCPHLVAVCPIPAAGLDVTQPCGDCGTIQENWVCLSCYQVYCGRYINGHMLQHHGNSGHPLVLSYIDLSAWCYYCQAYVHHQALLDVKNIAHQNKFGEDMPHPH
Summary of the method: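 Two-step fluorogenic read-out: enzyme deacetylates 50 μM RHKK(Ac)AMC for 1 h at 30° C in pH 8.0 Tris buffer with BSA and 1% DMSO, then developer cleavage gives signal at Ex 360/Em 460. Enzyme: 0.3 ng/ul recombinant full-length human HDAC6, GST-tagged, Sf9-expressed.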

T1 sequence (Q13547 whole entry, canonical isoform): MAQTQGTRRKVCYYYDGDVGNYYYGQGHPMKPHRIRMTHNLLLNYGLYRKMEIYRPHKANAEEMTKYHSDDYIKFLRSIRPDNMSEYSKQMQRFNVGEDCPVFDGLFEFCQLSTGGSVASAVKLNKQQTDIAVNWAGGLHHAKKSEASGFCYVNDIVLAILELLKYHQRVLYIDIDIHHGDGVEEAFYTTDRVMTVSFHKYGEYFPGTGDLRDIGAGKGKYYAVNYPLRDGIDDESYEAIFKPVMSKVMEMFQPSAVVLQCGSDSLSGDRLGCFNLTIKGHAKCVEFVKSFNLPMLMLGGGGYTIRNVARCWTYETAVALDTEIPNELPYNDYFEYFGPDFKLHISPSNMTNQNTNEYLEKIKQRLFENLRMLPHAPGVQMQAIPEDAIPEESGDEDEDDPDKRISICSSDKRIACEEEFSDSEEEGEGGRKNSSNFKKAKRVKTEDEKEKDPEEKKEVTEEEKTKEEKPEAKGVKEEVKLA

SMILES	IC50 [1] [nM]	IC50 [2] [nM]	IC50 [3] [nM]	IC50 [4] [nM]	IC50 [5] [nM]	IC50 [6] [nM]
Cc1cnc(N(Cc2ccc(-c3noc(C(F)(F)F)n3)s2)c2cc(C(F)(F)F)cnn2)cn1 [Example EO, N-(5-Methylpyrazin-2-yl)-5-(trifluoromethyl)-N-({5-[5-(trifluoromethyl)-1,2,4-oxadiazol-3-yl]thiophen-2-yl}methyl)pyridazin-3-amine]	> 10000	≤ 10000	≤ 10000	> 10000	≤ 10000	≤ 10000
Cc1ncnc(C)c1N(Cc1ccc(-c2noc(C(F)(F)F)n2)s1)c1cnccn1 [Example DC, 4,6-Dimethyl-N-(pyrazin-2-yl)-N-({5-[5-(trifluoromethyl)-1,2,4-oxadiazol-3-yl]thiophen-2-yl}methyl)pyrimidin-5-amine]	> 10000	≤ 500	≤ 500	≤ 1000	≤ 500	≤ 10000
COc1ccc(N(Cc2ccc(-c3noc(C(F)(F)F)n3)s2)c2cnccn2)nn1 [Example DG, 6-Methoxy-N-(pyrazin-2-yl)-N-({5-[5-(trifluoromethyl)-1,2,4-oxadiazol-3-yl]thiophen-2-yl}methyl)pyridazin-3-amine]	> 10000	≤ 1000	≤ 1000	≤ 10000	≤ 10000	≤ 1000
FC(F)(F)c1cnnc(N(Cc2ccc(-c3noc(C(F)(F)F)n3)s2)c2ccccn2)c1 [Example EG, N-(Pyridin-2-yl)-5-(trifluoromethyl)-N-({5-[5-(trifluoromethyl)-1,2,4-oxadiazol-3-yl]thiophen-2-yl}methyl)pyridazin-3-amine]	> 10000	≤ 10000	≤ 10000	> 10000	> 10000	≤ 10000

The next lines start with the values.

IC50 [1] [nM]	IC50 [2] [nM]	IC50 [3] [nM]	IC50 [4] [nM]	IC50 [5] [nM]	IC50 [6] [nM]	SMILES
> 10000	≤ 10000	≤ 10000	≤ 10000	≤ 10000	≤ 10000	FC(F)(F)c1cc(N(Cc2ccc(-c3noc(C(F)(F)F)n3)s2)c2cnccn2)ncn1 [Example CJ, N-(Pyrazin-2-yl)-6-(trifluoromethyl)-N-({5-[5-(trifluoromethyl)-1,2,4-oxadiazol-3-yl]thiophen-2-yl}methyl)pyrimidin-4-amine]
> 10000	≤ 10000	≤ 10000	≤ 10000	≤ 1000	≤ 10000	FC(F)(F)c1nc(-c2ccc(CN(c3cnccn3)c3ccc4nncn4n3)s2)no1 [Example DU, N-{[1,2,4]Triazolo[4,3-b]pyridazin-6-yl}-N-({5-[5-(trifluoromethyl)-1,2,4-oxadiazol-3-yl]thiophen-2-yl}methyl)pyrazin-2-amine]
≤ 10000	≤ 1000	≤ 1000	≤ 10000	≤ 10000	≤ 10000	FC(F)(F)c1nc(-c2ccc(CN(c3cnccn3)c3cscn3)s2)no1 [Example T, N-(1,3-Thiazol-4-yl)-N-({5-[5-(trifluoromethyl)-1,2,4-oxadiazol-3-yl]thiophen-2-yl}methyl)pyrazin-2-amine]
≤ 10000	≤ 10000	≤ 10000	≤ 10000	≤ 10000	≤ 1000	FC(F)(F)c1cnnc(N(Cc2ccc(-c3noc(C(F)(F)F)n3)s2)c2ccc(N3CCOCC3)nn2)c1 [Example EX, 6-(Morpholin-4-yl)-N-({5-[5-(trifluoromethyl)-1,2,4-oxadiazol-3-yl]thiophen-2-yl}methyl)-N-[5-(trifluoromethyl)pyridazin-3-yl]pyridazin-3-amine]
